{
  "source": "patent US20180327367A1",
  "about": "“MACROCYCLIC BROAD SPECTRUM ANTIBIOTICS” (priority 2015, published 2018)",
  "format_in_all_cases": "cell-based",
  "key": {"[1]": {"test_system": "Methicillin Resistant Staphylococcus aureus strain USA 300, NRS384", "experiment": "Minimum inhibitory concentration, broth micro-dilution (CLSI), S. aureus", "conditions": "Staphylococcus aureus, MRSA / NRS 384 / USA300, 22 h, MRSA USA 300 NRS384; 35° C., 22 hours; read-out: MIC (μg/mL) S. aureus", "procedure": "(§1) In vitro antimicrobial activity of each compound was determined by measuring minimal inhibitor concentrations (MICs) using the broth micro-dilution technique as approved by the Clinical and Laboratory Standards Institute (CLSI) (Methods for Dilution Antimicrobial Susceptibility Tests for Bacteria that Grow Aerobically; Approved Standard—Eighth Edition. CLSI document M07-A8. Wayne, Pa.: Clinical and Laboratory Standards; 2009). Antibacterial activity was measure against three strains of bacteria: a Methicillin Resistant Staphylococcus aureus strain USA 300, NRS384 (S. aureus); a strain of Escherichia coli MC4100 harboring the IMP4213 (E. coli IMP), which results in increased outer-membrane permeability (B Martin and Silhavy T. Imp/OstA is required for cell envelope biogenesis in Escherichia coli. (2002) Molecular Microbiology, 45(5), 1289-1302), and Escherichia coli ATCC 25922 (E. coli), a clinically relevant Gram-negative strain. Cells were inoculated onto plates of Trypyticase Soy Agar or Luria Agar respectively and grown at 35° C. for 20 hours. Inocula suspensions were prepared by scraping cells into 1 mL of testing media (cation adjusted Mueller Hinton Broth supplemented with 0.002% v/v Tween-80) and diluting to a final OD600 nm of 0.01.\n(§2) Test compounds were prepared in DMSO at a concentration of 10 mg/mL. […] In protocol 2, the compound stocks were diluted into testing media at a concentration of 4 μg/mL and serial 2-fold dilutions were made in the same media, in 96-well U bottom microtiter dishes, for a total of 10 compound concentrations. In protocol 3, compound stocks were diluted into testing media at a concentration of 0.5 μg/mL, with serial 2-fold dilutions conducted as described above. […] Inocula suspensions were added to the 2-fold serial dilutions of test compounds to a final density of OD OD600 nm of 0.0005 and incubated at 35° C. for 22 hours."}, "[2]": {"test_system": "Escherichia coli MC4100 harboring the IMP4213 (E. coli IMP)", "experiment": "microbe, parasite or virus in culture", "conditions": "Escherichia coli, 22 h, read-out: MIC (μg/mL) E. coli IMP, E. coli MC4100 IMP4213, increased outer-membrane permeability; 35° C., 22 hours", "procedure": "as §1, §2"}, "[3]": {"test_system": "Escherichia coli ATCC 25922", "experiment": "Minimum inhibitory concentration, broth micro-dilution (CLSI), E. coli", "conditions": "Escherichia coli, ATCC25922, 22 h, E. coli ATCC 25922; 35° C., 22 hours; read-out: MIC (μg/mL) E. coli", "procedure": "Cells were inoculated onto plates of Trypyticase Soy Agar or Luria Agar respectively and grown at 35° C. for 20 hours. Inocula suspensions were prepared by scraping cells into 1 mL of testing media (cation adjusted Mueller Hinton Broth supplemented with 0.002% v/v Tween-80) and diluting to a final OD600 nm of 0.01.\nas §2"}},
  "data": [
    {"compound": "Cc1cc(-c2ccc(CC(C)C)nn2)ccc1C(=O)N[C@@H](CCN)C(=O)N(C)[C@@H]1C(=O)N[C@@H](C)C(=O)N[C@H](C(=O)NCC#N)Cc2ccc(OCCN)c(c2)-c2cc1ccc2OCCN", "note": "[Compound 180]", "values": [
      {"measurement": "MIC", "setting": "[1]", "result": 1, "unit": "µg/mL"},
      {"measurement": "MIC", "setting": "[2]", "result": 0.38, "unit": "µg/mL"},
      {"measurement": "MIC", "setting": "[3]", "result": 8, "unit": "µg/mL"}
    ]},
    {"compound": "Cc1cc(-c2ccc(CC(C)C)nc2)ccc1C(=O)N[C@@H](CCN)C(=O)N(C)[C@@H]1C(=O)N[C@@H](C)C(=O)N[C@H](C(=O)NCC#N)Cc2ccc(OCCN)c(c2)-c2cc1ccc2OCCN", "note": "[Compound 181]", "values": [
      {"measurement": "MIC", "setting": "[1]", "result": 0.13, "unit": "µg/mL"},
      {"measurement": "MIC", "setting": "[2]", "result": 0.031, "unit": "µg/mL"},
      {"measurement": "MIC", "setting": "[3]", "result": 2, "unit": "µg/mL"}
    ]},
    {"compound": "CCCCCCCc1cc(C)c(C(=O)N[C@@H](CCN)C(=O)N(C)[C@@H]2C(=O)N[C@@H](C)C(=O)N[C@H](C(=O)NCC#N)Cc3ccc(OCCN)c(c3)-c3cc2ccc3OCCN)c(C)c1", "note": "[Compound 189]", "values": [
      {"measurement": "MIC", "setting": "[1]", "result": 0.031, "unit": "µg/mL"},
      {"measurement": "MIC", "setting": "[2]", "result": 0.023, "unit": "µg/mL"},
      {"measurement": "MIC", "setting": "[3]", "result": 0.19, "unit": "µg/mL"}
    ]},
    {"compound": "CCCCc1cccc(C(=O)N[C@@H](CCCN)C(=O)N(C)[C@@H]2C(=O)N[C@@H](C)C(=O)N[C@H](C(=O)NCC#N)Cc3ccc(OCCN)c(c3)-c3cc2ccc3OCCN)c1C", "note": "[Compound 206]", "values": [
      {"measurement": "MIC", "setting": "[1]", "result": 0.38, "unit": "µg/mL"},
      {"measurement": "MIC", "setting": "[2]", "result": 0.094, "unit": "µg/mL"},
      {"measurement": "MIC", "setting": "[3]", "result": 16, "unit": "µg/mL"}
    ]},
    {"compound": "CCCCc1ccc(C)c(C(=O)N[C@@H](CCCN)C(=O)N(C)[C@@H]2C(=O)N[C@@H](C)C(=O)N[C@H](C(=O)NCC#N)Cc3ccc(OCCN)c(c3)-c3cc2ccc3OCCN)c1", "note": "[Compound 207]", "values": [
      {"measurement": "MIC", "setting": "[1]", "result": 1.5, "unit": "µg/mL"},
      {"measurement": "MIC", "setting": "[2]", "result": 0.063, "unit": "µg/mL"},
      {"measurement": "MIC", "setting": "[3]", "result": 16, "unit": "µg/mL"}
    ]},
    {"compound": "CCCCCCCCc1ccc(C(=O)N[C@@H](CCN)C(=O)N(C)[C@@H]2C(=O)N[C@@H](C)C(=O)N[C@H](C(=O)NCC#N)Cc3ccc(OCCN)c(c3)-c3cc2ccc3OCCN)c(Br)c1", "note": "[Compound 211]", "values": [
      {"measurement": "MIC", "setting": "[1]", "result": 0.063, "unit": "µg/mL"},
      {"measurement": "MIC", "setting": "[2]", "result": 0.055, "unit": "µg/mL"},
      {"measurement": "MIC", "setting": "[3]", "result": 0.11, "unit": "µg/mL"}
    ]},
    {"compound": "Cc1cc(-c2ccc(CC(C)C)cc2)ccc1C(=O)N[C@@H](CC(N)=O)C(=O)N(C)[C@@H]1C(=O)N[C@@H](C)C(=O)N[C@H](C(=O)NCC#N)Cc2ccc(OCCN)c(c2)-c2cc1ccc2OCCN", "note": "[Compound 240]", "values": [
      {"measurement": "MIC", "setting": "[1]", "result": 0.19, "unit": "µg/mL"},
      {"measurement": "MIC", "setting": "[2]", "result": 0.094, "unit": "µg/mL"},
      {"measurement": "MIC", "setting": "[3]", "result": 1.5, "unit": "µg/mL"}
    ]},
    {"compound": "CCCCCCCCc1ccc(C(=O)N[C@@H](CCC(N)=O)C(=O)N(C)[C@@H]2C(=O)N[C@@H](C)C(=O)N[C@H](C(=O)NCC#N)Cc3ccc(OCCN)c(c3)-c3cc2ccc3OCCN)c(C)c1", "note": "[Compound 247]", "values": [
      {"measurement": "MIC", "setting": "[1]", "result": 0.094, "unit": "µg/mL"},
      {"measurement": "MIC", "setting": "[2]", "result": 0.094, "unit": "µg/mL"},
      {"measurement": "MIC", "setting": "[3]", "result": 2, "unit": "µg/mL"}
    ]},
    {"compound": "Cc1cc(-c2ccc(CC(C)C)cc2)ccc1C(=O)N[C@@H](CCC(N)=O)C(=O)N(C)[C@@H]1C(=O)N[C@@H](C)C(=O)N[C@H](C(=O)NCC#N)Cc2ccc(OCCN)c(c2)-c2cc1ccc2OCCN", "note": "[Compound 248]", "values": [
      {"measurement": "MIC", "setting": "[1]", "result": 0.19, "unit": "µg/mL"},
      {"measurement": "MIC", "setting": "[2]", "result": 0.094, "unit": "µg/mL"},
      {"measurement": "MIC", "setting": "[3]", "result": 1, "unit": "µg/mL"}
    ]},
    {"compound": "CCCCCCCCc1ccc(C(=O)N[C@H](C)C(=O)N(C)[C@@H]2C(=O)N[C@@H](C)C(=O)N[C@H](C(=O)NCC#N)Cc3ccc(OCCN)c(c3)-c3cc2ccc3OCCN)c(C)c1", "note": "[Compound 251]", "values": [
      {"measurement": "MIC", "setting": "[1]", "result": 4, "unit": "µg/mL"},
      {"measurement": "MIC", "setting": "[2]", "result": 4, "unit": "µg/mL"},
      {"measurement": "MIC", "setting": "[3]", "result": 8, "unit": "µg/mL"}
    ]},
    {"compound": "CCCCCCCCc1ccc(C(=O)NCC(=O)N(C)[C@@H]2C(=O)N[C@@H](C)C(=O)N[C@H](C(=O)NCC#N)Cc3ccc(OCCN)c(c3)-c3cc2ccc3OCCN)c(C)c1", "note": "[Compound 252]", "values": [
      {"measurement": "MIC", "setting": "[1]", "result": 0.25, "unit": "µg/mL"},
      {"measurement": "MIC", "setting": "[2]", "result": 0.023, "unit": "µg/mL"},
      {"measurement": "MIC", "setting": "[3]", "result": 2, "unit": "µg/mL"}
    ]},
    {"compound": "C[C@@H]1NC(=O)[C@@H](N(C)C(=O)[C@H](CCO)NC(=O)c2ccc(-c3ccc(Cl)cc3)cc2)c2ccc(OCCN)c(c2)-c2cc(ccc2OCCN)C[C@@H](C(=O)NCC#N)NC1=O", "note": "[Compound 259]", "values": [
      {"measurement": "MIC", "setting": "[1]", "result": 0.5, "unit": "µg/mL"},
      {"measurement": "MIC", "setting": "[2]", "result": 0.25, "unit": "µg/mL"},
      {"measurement": "MIC", "setting": "[3]", "result": 64, "unit": "µg/mL"}
    ]},
    {"compound": "Cc1cc(OCC2CCC(F)(F)CC2)ccc1C(=O)N[C@@H](CCN)C(=O)N(C)[C@@H]1C(=O)N[C@@H](C)C(=O)N[C@H](C(=O)NCC#N)Cc2ccc(OCCN)c(c2)-c2cc1ccc2OCCN", "note": "[Compound 278]", "values": [
      {"measurement": "MIC", "setting": "[1]", "result": 0.5, "unit": "µg/mL"},
      {"measurement": "MIC", "setting": "[2]", "result": 0.13, "unit": "µg/mL"},
      {"measurement": "MIC", "setting": "[3]", "result": 4, "unit": "µg/mL"}
    ]},
    {"compound": "C[C@@H]1NC(=O)[C@@H](N(C)C(=O)[C@H](CCN)NC(=O)c2ccc(OCC(C)(C)C)cc2Cl)c2ccc(OCCN)c(c2)-c2cc(ccc2OCCN)C[C@@H](C(=O)NCC#N)NC1=O", "note": "[Compound 279]", "values": [
      {"measurement": "MIC", "setting": "[1]", "result": 0.13, "unit": "µg/mL"},
      {"measurement": "MIC", "setting": "[2]", "result": 0.02, "unit": "µg/mL"},
      {"measurement": "MIC", "setting": "[3]", "result": 0.5, "unit": "µg/mL"}
    ]}
  ]
}
